From patent US20260015358A1, “BICYCLIC DERIVATIVES, COMPOSITIONS AND USES THEREOF” (Danatlas Pharmaceuticals Co., Ltd., priority 2023, published 2026)
pIC50: −log10 of the molar value.

Legend:
[1] = molecular target: T1, WRN [UniPro: Q14191 (WRN_HUMAN), N500-C946] (Homo sapiens (Human), UniProt Q14191); test: WRN ATPase assay (ADP-Glo); type: biochemical; details: WRN enzymatic activity assay
Protocol: WRN ATPase assay was initiated to evaluate potential inhibitory effect of compounds for ATP hydrolysis activity of WRN protein. WRN [UniPro: Q14191 (WRN_HUMAN), N500-C946] was expressed and purified in insect system and stored at −80° C. in aliquots. […] ADP quantity produced from ATP hydrolysis by WRN catalytic reaction was measured using a commercially available ADP-Glo Assay (ADP-Glo™ Kinase Assay from Promega, 10000 assays, #V9102). […] Compounds dissolved in DMSO (Sigma, D8418) were plated into a 96-well intermediate plate (BioFil, VWP-032-096) for 3-fold serial titration for 10 points using DMSO, and well-to-well transfer the titrated compounds into another 96-well intermediate plate including assay buffer in advance. Shake the 96-well intermediate plate at 600 rpm for 10 min to fully mix. Specifically, a 4× working mixture of WRN was diluted to a concentration of 8 nM in assay buffer. […] After centrifuging at 1000 rpm and shaking at 500 rpm, the assay plate was pre-incubated for 30 min. Then, 5 μL 2×FORKF DNA and ATP working mixture was dispensed into assay plate. Plate was sealed, centrifuged and incubated for an additional 40 min. at 37° C. The reaction was stopped with the addition of 10 μL of the first ADP-Glo reagent and incubated for 40 min. to remove the excess amount of ATP. Afterwards, 20 μL of ATP detection reagent was added and incubated for 30 min. before reading. Luminescence output was recorded using BMG CLARIO star plus reader. Each concentration of compound was tested in duplicates in the assay plate. Average luminescence signal of high control (Wells with 1% DMSO) was calculated as High Control (HC). Average luminescence signal of low control (Wells with no WRN protein) was calculated as Low control (LC).
IC50 values were determined by fitting the data to the standard 4 parameters with Hill Slope using GraphPad Prism software.

[2] = molecular target: T1, WRN [UniPro: Q14191 (WRN_HUMAN), N500-C946]; test: WRN unwinding assay (FORKF DNA, fluorescence); type: biochemical; details: Table 14

T1 sequence (Q14191 500-946): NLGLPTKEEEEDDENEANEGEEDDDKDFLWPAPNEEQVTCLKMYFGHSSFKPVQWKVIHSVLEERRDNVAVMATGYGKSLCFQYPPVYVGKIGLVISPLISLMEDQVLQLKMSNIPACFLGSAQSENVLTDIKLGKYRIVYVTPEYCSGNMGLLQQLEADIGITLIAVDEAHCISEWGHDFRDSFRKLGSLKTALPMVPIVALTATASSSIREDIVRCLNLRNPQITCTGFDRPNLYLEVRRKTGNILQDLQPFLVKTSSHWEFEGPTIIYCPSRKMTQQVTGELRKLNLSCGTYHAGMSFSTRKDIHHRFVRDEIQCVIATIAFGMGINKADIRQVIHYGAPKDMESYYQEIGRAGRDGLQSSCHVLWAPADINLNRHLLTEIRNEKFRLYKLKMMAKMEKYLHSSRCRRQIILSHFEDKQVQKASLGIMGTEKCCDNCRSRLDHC

Row | pIC50 [1] | pIC50 [2] | Structure (SMILES)
1 | > 7.00 | > 7.00 | CCc1c(N2CCN(C(=O)NS(=O)(=O)CC)CC2)c(=O)n2nc(C3=CCOCC3)nc2n1CC(=O)Nc1ccc(C(F)(F)F)cc1Cl [Example 25, 4-(4-(2-((2-Chloro-4-(trifluoromethyl)phenyl)amino)-2-oxoethyl)-2-(3,6-dihydro-2H-pyran-4-yl)-5-ethyl-7-oxo-4,7-dihydro-[1,2,4]triazolo[1,5-a]pyrimidin-6-yl)-N-(ethylsulfonyl)piperazine-1-carboxamide]
2 | 6.00 to 7.00 | > 7.00 | CCC(=O)N1CCN(c2c(CC)n(CC(=O)Nc3ccc(C(F)(F)F)cc3Cl)c3nc(C4=CCOCC4)nn3c2=O)CC1 [Example 27, N-(2-Chloro-4-(trifluoromethyl)phenyl)-2-(2-(3,6-dihydro-2H-pyran-4-yl)-5-ethyl-7-oxo-6-(4-propionylpiperazin-1-yl)-[1,2,4]triazolo[1,5-a]pyrimidin-4(7H)-yl)acetamide]
3 | 6.00 to 7.00 | 6.00 to 7.00 | CCc1c(N2CCN(S(N)(=O)=O)CC2)c(=O)n2nc(C3=CCOCC3)nc2n1CC(=O)Nc1ccc(C(F)(F)F)cc1Cl [Example 28, N-(2-Chloro-4-(trifluoromethyl)phenyl)-2-(2-(3,6-dihydro-2H-pyran-4-yl)-5-ethyl-7-oxo-6-(4-sulfamoylpiperazin-1-yl)-[1,2,4]triazolo[1,5-a]pyrimidin-4(7H)-yl)acetamide]
4 | > 7.00 | > 7.00 | CCC(=O)NS(=O)(=O)N1CCN(c2c(CC)n(CC(=O)Nc3ccc(C(F)(F)F)cc3Cl)c3nc(C4=CCOCC4)nn3c2=O)CC1 [Example 29, N-((4-(4-(2-((2-Chloro-4-(trifluoromethyl)phenyl)amino)-2-oxoethyl)-2-(3,6-dihydro-2H-pyran-4-yl)-5-ethyl-7-oxo-4,7-dihydro-[1,2,4]triazolo[1,5-a]pyrimidin-6-yl)piperazin-1-yl)sulfonyl) propionamide]
5 | 6.00 to 7.00 | > 7.00 | CCc1c(N2CCN(C(=O)Nc3[nH]cnc3C(F)(F)F)CC2)c(=O)n2nc(C3=CCOCC3)nc2n1CC(=O)Nc1ccc(C(F)(F)F)cc1Cl [Example 30, 4-(4-(2-((2-Chloro-4-(trifluoromethyl)phenyl)amino)-2-oxoethyl)-2-(3,6-dihydro-2H-pyran-4-yl)-5-ethyl-7-oxo-4,7-dihydro-[1,2,4]triazolo[1,5-a]pyrimidin-6-yl)-N-(4-(trifluoromethyl)-1H-imidazol-5-yl)piperazine-1-carboxamide]
6 | 6.00 to 7.00 | > 7.00 | CCc1c(N2CCN(C(=O)c3[nH]cnc3C(F)(F)F)CC2)c(=O)n2nc(C3=CCOCC3)nc2n1CC(=O)Nc1ccc(C(F)(F)F)cc1Cl [Example 31, N-(2-Chloro-4-(trifluoromethyl)phenyl)-2-(2-(3,6-dihydro-2H-pyran-4-yl)-5-ethyl-7-oxo-6-(4-(4-(trifluoromethyl)-1H-imidazole-5-carbonyl)piperazin-1-yl)-[1,2,4]triazolo[1,5-a]pyrimidin-4(7H)-yl)acetamide]
7 | 6.00 to 7.00 | > 7.00 | CCc1c(N2CCN(C(=O)c3ncsc3N)CC2)c(=O)n2nc(C3=CCOCC3)nc2n1CC(=O)Nc1ccc(C(F)(F)F)cc1Cl [Example 32, 2-(6-(4-(5-Aminothiazole-4-carbonyl)piperazin-1-yl)-2-(3,6-dihydro-2H-pyran-4-yl)-5-ethyl-7-oxo-[1,2,4]triazolo[1,5-a]pyrimidin-4(7H)-yl)-N-(2-chloro-4-(trifluoromethyl)phenyl)acetamide]
8 | 6.00 to 7.00 | 6.00 to 7.00 | CCC(=O)N(C(=O)Cn1c(CC)c(N2CCN(S(N)(=O)=O)CC2)c(=O)n2nc(C3=CCOCC3)nc12)c1ccc(C(F)(F)F)cc1Cl [Example 35, N-(2-Chloro-4-(trifluoromethyl)phenyl)-N-(2-(2-(3,6-dihydro-2H-pyran-4-yl)-5-ethyl-7-oxo-6-(4-sulfamoylpiperazin-1-yl)-[1,2,4]triazolo[1,5-a]pyrimidin-4(7H)-yl)acetyl)propionamide]
9 | > 7.00 | 6.00 to 7.00 | CCc1c(N2CCN(C(=O)CNC(=O)OC(C)(C)C)CC2)c(=O)n2nc(C3=CCOCC3)nc2n1CC(=O)Nc1ccc(C(F)(F)F)cc1Cl [Example 37, tert-Butyl (2-(4-(4-(2-((2-chloro-4-(trifluoromethyl)phenyl)amino)-2-oxoethyl)-2-(3,6-dihydro-2H-pyran-4-yl)-5-ethyl-7-oxo-4,7-dihydro-[1,2,4]triazolo[1,5-a]pyrimidin-6-yl)piperazin-1-yl)-2-oxoethyl)carbamate]
10 | > 7.00 | > 7.00 | CCNC(=O)NCC(=O)N1CCN(c2c(CC)n(CC(=O)Nc3ccc(C(F)(F)F)cc3Cl)c3nc(C4=CCOCC4)nn3c2=O)CC1 [Example 41, N-(2-Chloro-4-(trifluoromethyl)phenyl)-2-(2-(3,6-dihydro-2H-pyran-4-yl)-5-ethyl-6-(4-((ethylcarbamoyl)glycyl)piperazin-1-yl)-7-oxo-[1,2,4]triazolo[1,5-a]pyrimidin-4(7H)-yl)acetamide]
11 | > 7.00 | > 7.00 | CCc1c(N2CCN(C(=O)c3cnc4[nH]ccc4c3O)CC2)c(=O)n2nc(C3=CCOCC3)nc2n1CC(=O)Nc1ccc(C(F)(F)F)cc1Cl [Example 42, N-(2-Chloro-4-(trifluoromethyl)phenyl)-2-(2-(3,6-dihydro-2H-pyran-4-yl)-5-ethyl-6-(4-(4-hydroxy-1H-pyrrolo[2,3-b]pyridine-5-carbonyl)piperazin-1-yl)-7-oxo-[1,2,4]triazolo[1,5-a]pyrimidin-4(7H)-yl)acetamide]
12 | 6.00 to 7.00 | > 7.00 | CCc1c(N2CCN(C(=O)c3c[nH]c(=O)n(C)c3=O)CC2)c(=O)n2nc(C3=CCOCC3)nc2n1CC(=O)Nc1ccc(C(F)(F)F)cc1Cl [Example 43, N-(2-Chloro-4-(trifluoromethyl)phenyl)-2-(2-(3,6-dihydro-2H-pyran-4-yl)-5-ethyl-6-(4-(3-methyl-2,4-dioxo-1,2,3,4-tetrahydropyrimidine-5-carbonyl)piperazin-1-yl)-7-oxo-[1,2,4]triazolo[1,5-a]pyrimidin-4(7H)-yl)acetamide]
13 | 6.00 to 7.00 | 6.00 to 7.00 | CCc1c(N2CCN(C(=O)c3ncnc4c(Cl)c[nH]c34)CC2)c(=O)n2nc(C3=CCOCC3)nc2n1CC(=O)Nc1ccc(C(F)(F)F)cc1Cl [Example 44, N-(2-Chloro-4-(trifluoromethyl)phenyl)-2-(6-(4-(7-chloro-5H-pyrrolo[3,2-d]pyrimidine-4-carbonyl)piperazin-1-yl)-2-(3,6-dihydro-2H-pyran-4-yl)-5-ethyl-7-oxo-[1,2,4]triazolo[1,5-a]pyrimidin-4(7H)-yl)acetamide]
14 | > 7.00 | > 7.00 | CCc1c(N2CCN(C(=O)c3cnc4ccsc4c3O)CC2)c(=O)n2nc(C3=CCOCC3)nc2n1CC(=O)Nc1ccc(C(F)(F)F)cc1Cl [Example 45, N-(2-Chloro-4-(trifluoromethyl)phenyl)-2-(2-(3,6-dihydro-2H-pyran-4-yl)-5-ethyl-6-(4-(7-hydroxythieno[3,2-b]pyridine-6-carbonyl)piperazin-1-yl)-7-oxo-[1,2,4]triazolo[1,5-a]pyrimidin-4(7H)-yl)acetamide]
15 | 6.00 to 7.00 | > 7.00 | CCc1c(N2CCN(C(=O)c3ncc(F)cc3N)CC2)c(=O)n2nc(C3=CCOCC3)nc2n1CC(=O)Nc1ccc(C(F)(F)F)cc1Cl [Example 46, 2-(6-(4-(3-Amino-5-fluoropicolinoyl)piperazin-1-yl)-2-(3,6-dihydro-2H-pyran-4-yl)-5-ethyl-7-oxo-[1,2,4]triazolo[1,5-a]pyrimidin-4(7H)-yl)-N-(2-chloro-4-(trifluoromethyl)phenyl)acetamide]
16 | > 7.00 | > 7.00 | CCc1c(N2CCN(C(=O)c3n[nH]c(=O)cc3O)CC2)c(=O)n2nc(C3=CCOCC3)nc2n1CC(=O)Nc1ccc(C(F)(F)F)cc1Cl [Example 48, N-(2-Chloro-4-(trifluoromethyl)phenyl)-2-(2-(3,6-dihydro-2H-pyran-4-yl)-5-ethyl-6-(4-(4-hydroxy-6-oxo-1,6-dihydropyridazine-3-carbonyl)piperazin-1-yl)-7-oxo-[1,2,4]triazolo[1,5-a]pyrimidin-4(7H)-yl)acetamide]
17 | > 7.00 | > 7.00 | CCc1c(N2CCN(C(=O)c3cnc4scnc4c3O)CC2)c(=O)n2nc(C3=CCOCC3)nc2n1CC(=O)Nc1ccc(C(F)(F)F)cc1Cl [Example 49, N-(2-Chloro-4-(trifluoromethyl)phenyl)-2-(2-(3,6-dihydro-2H-pyran-4-yl)-5-ethyl-6-(4-(7-hydroxythiazolo[5,4-b]pyridine-6-carbonyl)piperazin-1-yl)-7-oxo-[1,2,4]triazolo[1,5-a]pyrimidin-4(7H)-yl)acetamide]
